From patent US4997818A, “Therapeutic method for selectively treating terminal deoxynucleotidyl transferase-positive neoplastic leukemias and lymphomas” (The University Hospital, priority 1989, dated 1991)

How the values were obtained:
[1] = target: T1, terminal deoxynucleotidyl transferase (TdT) (Bos taurus, UniProt P06526); experiment: TdT enzyme assay (3H-dGTP incorporation); type: biochemical, calf
T1 construct: purchased DuPont/NEN Products, Boston, Massachusetts; host or cells: calf thymus
Experimental: (§1) Initially, the effect of various ddNTPs on TdT and DNA polymerase alpha was evaluated. DNA polymerase alpha, purified from calf thymus according to Kornberg [DNA Replication, W.H. Freeman and Company, 1980, p 206]and Wahl et al. [Biochemistry 23:1895 (1984)] was purchased from Pharmacia, Inc. (Piscataway, N.J.). TdT, purified from calf thymus, was purchased from DuPont/NEN Products, Boston, Massachusetts). Enzyme assays were conducted at 37 C. under conditions established to be optimal for each assay. For DNA polymeraseα, 0.1 ml of reaction mixture contained: 0.05 M tris-HCl (pH 8.3); 4 mM dithiothreitol; 4 mM MgCl; 10 ug poly(dAT); 0.05 mM ^3 H-dATP; 0.05 mM dTTP; and 0.05 units of enzyme. For TdT assays, 0.1 ml of standard reaction mixture contained: 0.05 M tris-HCl (pH 8.3); 2 mM dithiothreitol; 0.6 mM MnCl; 20 ug oligo(dA) 50; 0.1 mM ^3 H-dGTP; and 0.5 units of TdT.
For these studies, ddNTPs were dissolved in deionized distilled water and added to the respective reaction mixtures at time zero to give the effective final concentrations. The degree of reaction or inhibition was calculated from simultaneous control reactions. The mode of inhibition and inhibition constants were determined using Linweaver-Burke and Dixon plots. Each of the respective reactions was stopped using 0.5 ml of cold (4 C) 0.1 M sodium pyrophosphate containing 1 mg/ml yeast RNA (hereinafter"NaPP") and precipitated with 0.5 ml of cold 25% trichloroacetic acid (hereinafter "TCA"). The precipitates centrifuged at 13,000×gravity in a microfuge for one minute; resolubilized in 0.2 ml of 0.3M NaOH; and then reprecipitated with NaPP and TCA. Following a second 0.3 M NaOH resolubilization, 10 ml of scintiverse II (Fisher Scientific Company, Fairlawn, N.J.) was added to each sample for counting in a Beckman LS3700 liquid scintillation counter.
(§2) It should be noted also that for certain TdT assays, a variety of different initiators were used in place of oligo (dA) 50. These included: activated DNA; 5'-^32 T-GTCCGTCTCTGCCTC-3' (15 MER synthesized on an automated synthesizer using standard phosphoramidite chemistry having a ^32 P-end labeled by a standard Maxam-Gilbert reaction); YEP-FG-2-plasmid DNA; oligo (dC) 18; oligo (dT) 18; and various ^3 H-substrates such as dCTP, dATP, and dTTP in place of ^3 H-dGTP. Reactions utilizing the 15 MER initiator contained either 5 mM MgCl2 or 1 mM CoCl2 in place of MnCl2.

DNA polymerase alpha = DNA polymerase alpha enzyme assay; type: biochemical, calf
Experimental: as §1
For these studies, ddNTPs were dissolved in deionized distilled water and added to the respective reaction mixtures at time zero to give the effective final concentrations. The degree of reaction or inhibition was calculated from simultaneous control reactions. The mode of inhibition and inhibition constants were determined using Linweaver-Burke and Dixon plots. […]

[2] = target: T1, terminal deoxynucleotidyl transferase (TdT); experiment: TdT-catalyzed polymerization on 32P-labelled 15 MER initiator, autoradiograph (chain termination); type: biochemical, calf; conditions: ddATP as substrate, MgCl2 or CoCl2
Description: as §2
It should be noted that the mechanism of inhibition by any of the ddNTPs upon TdT catalysis is by chain termination. […] A radiolabelled oligomer (^32 P-GTCCGTCTCTGCCTC-3') shown in Lane 1 was used as an initiator for TdT-catalyzed polymerization using: dATP (Lanes 2 and 4); or ddATP (Lanes 3 and 5 ) as substrates. Lanes 2 and 3 represent the reaction products generated in the presence of MgCl2 while Lanes 4 and 5 represent the reaction products generated in the presence of CoCl2 respectively. Each reaction product was electrophoresed on a 20% polyacrylamide gel under denaturing conditions (2.5 hours at 35 watts, 2800 volts). […] Thus, the effectiveness of chain termination by ddATP is clearly established.

[3] = tested on: fresh leukemia cell cultures; experiment: Ex-vivo viability of fresh leukemia cells from patients (trypan blue); type: cell-based, human; conditions: 30 uM CF alone, two instances
Description: Leukemic blast cells from bone marrow or peripheral blood were obtained from 12 patients; of these, six persons were diagnosed as afflicted with acute lymphatic leukemia; three persons were diagnosed as afflicted with acute myeloblastic leukemia; two persons were diagnosed as afflicted with blastic chronic myelogenous leukemia; and one person was diagnosed as having acute myelogenous leukemia, complicating multiple myeloma. These diagnoses were based upon standard clinical and laboratory criteria. In ten of these twelve patients, blast cells constituted more than 75% of the mononuclear cells. In the eleventh and twelfth patients, 32% and 42% of the mononuclear cells were blast cells.
The leukemic cells from each person were enriched on Ficoll-Hypaque medium; washed in phosphate-buffered saline without divalent cations; resuspended in RPMI-1640 medium containing 20% FCS; and then grown in RPMI-1640 media supplemented with 10% FCS. The TdT status of each cell sample was independently determined by conventional biochemical assay before culturing. […] The six TdT-positive cases all had acute lymphoblastic leukemia.
Experimentally, all twelve fresh leukemia cell cultures were continuously exposed ex-vivo to 250 uM of ddA and 30 uM of CF for 72 hours. Each was then individually evaluated for viability as determined by trytan blue staining. The empirical results are illustrated by FIG. 6. […]

TdT-negative cell lines = experiment: Growth inhibition, summary over TdT-negative cell lines; type: cell-based; conditions: 48 hour
Experimental: (§3) Each cell line was utilized in exponential growth phase. For test purposes, cells were seeded at […] cells/ml in T25 flasks containing 4 ml of culture medium. Cell counts were made using a hemocytometer. Cell viability was determined using the tryptan blue dye exclusion method. The degree of growth inhibition was calculated by comparison with untreated controls.
(§4) Initially, the effect of a 48 hour continuous exposure to 250 uM and 500 uM of ddA upon four TdT-positive and three TdT-negative cell lines was evaluated.
(§5) The growth inhibition data of Table V is defined as the ratio of viable cells in the ddA exposed cultures in comparison to control cultures. Each determination reflects the mean of triplicate flasks. It is noted that at 250 uM of ddA, there was marked growth inhibition (30-80%) in all four TdT-positive cell lines whereas there was very little effect among the TdT-negative cells (0-15% growth inhibition). At 500 uM of ddA, the cytotoxicity in the TdT-positive lines was further increased (92-99% growth inhibition). At this concentration level, 2 of the 3 TdT-negative lines also show measureable growth inhibition (40-50%).

ML3 = experiment: Growth inhibition, viable cell count by trypan blue exclusion; type: cell-based; conditions: Homo sapiens; ML3, TdT negative, 48 hour continuous exposure
Experimental: as §3, §4, §5
(§6) As a result, another series of experiments was conducted in which the non-selective purinogenic cytotoxicity was reduced. In this experimental series, a variety of different cell lines were pre-incubated for 30 minutes with the adenosine deaminase inhibitor, coformycin (CF). This CF exposure was then followed by a continuous 48 hour exposure to 250 uM ddA with suitable controls. Growth inhibition was defined as the ratio of viable cells in the CF/ddA exposed cell cultures in comparison to control cultures. Each determination reflects the mean of quadruplicate flasks. The results are provided by FIG. 3 and Table VI respectively.

HPB-ALL = experiment: as above; type: cell-based; conditions: Homo sapiens, HPBALL, TdT positive, 48 hour continuous exposure
Experimental: as §3, §4, §5, §6

8392 = experiment: as above; type: cell-based; conditions: Homo sapiens; 8392, TdT negative, 48 hour continuous exposure
Experimental: as §3, §4, §5, §6

NALM-6 = experiment: as above; type: cell-based; conditions: Homo sapiens; NALM-6, TdT positive, 48 hour continuous exposure
Experimental: as §3, §4, §5, §6

MOLT-4 = experiment: as above; type: cell-based; conditions: Homo sapiens; MOLT-4, TdT positive, 48 hour continuous exposure
Experimental: as §3, §4, §5, §6

L1210 = experiment: as above; type: cell-based; conditions: Mus musculus; L1210, TdT negative, 48 hour continuous exposure
Experimental: as §3, §4, §5

298-26 = experiment: as above; type: cell-based, Murine; conditions: Mus musculus; 298-26, TdT positive, 48 hour continuous exposure
Experimental: as §3, §4, §5
(§7) As a result, another series of experiments was conducted in which the non-selective purinogenic cytotoxicity was reduced. […]

TdT-positive cell lines = experiment: Growth inhibition, summary over TdT-positive cell lines; type: cell-based; conditions: 48 hour
Experimental: as §3, §4, §5, §7

T1 sequence (P06526 whole entry): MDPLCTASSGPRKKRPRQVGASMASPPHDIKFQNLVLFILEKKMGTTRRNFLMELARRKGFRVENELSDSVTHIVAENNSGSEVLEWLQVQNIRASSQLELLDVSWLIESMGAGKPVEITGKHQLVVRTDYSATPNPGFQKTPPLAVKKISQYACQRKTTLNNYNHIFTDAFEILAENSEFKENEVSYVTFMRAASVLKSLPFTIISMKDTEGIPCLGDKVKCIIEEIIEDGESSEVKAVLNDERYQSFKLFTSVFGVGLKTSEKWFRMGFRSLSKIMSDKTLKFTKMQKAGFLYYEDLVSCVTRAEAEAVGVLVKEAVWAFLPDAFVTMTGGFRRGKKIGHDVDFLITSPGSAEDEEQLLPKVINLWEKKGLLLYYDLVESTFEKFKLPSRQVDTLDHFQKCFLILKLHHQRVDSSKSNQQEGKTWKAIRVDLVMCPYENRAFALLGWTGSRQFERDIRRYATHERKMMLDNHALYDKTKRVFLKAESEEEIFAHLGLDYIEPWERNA

`O=c1[nH]cnc2c1ncn2[C@H]1CC[C@@H](COP(=O)(O)OP(=O)(O)OP(=O)(O)O)O1` [ddITP, dideoxyinosine triphosphate] gave an IC50 [1] of 20 µM.
`Nc1ncnc2c1ncn2[C@H]1CC[C@@H](COP(=O)(O)OP(=O)(O)OP(=O)(O)O)O1` [ddATP, 2',3'-dideoxyadenosine triphosphate] was tested, and the “effect on DNA polymerase alpha enzyme activity (FIG. 1)” value (DNA polymerase alpha) was “does not recognize”, the IC50 [1] was 9 µM and the “effect on TdT polymerization reaction (FIG. 1)” value ([1]; micromolar concentrations of ddATP) was “dramatically inhibits”. The “chain termination: residues added by TdT to 15 MER initiator (FIG. 2)” value [2] was “only one residue is added”.
With `Cc1cn([C@H]2C[C@H](N=[N+]=[N-])[C@@H](CO[P@](=O)(O)O[P@](=O)(O)OP(=O)(O)O)O2)c(=O)[nH]c1=O` [AZTTP, 3'-azido thymidine triphosphate, reference compound] the IC50 [1] was 133 µM.
In the case of `Cc1cn([C@H]2CC[C@@H](COP(=O)(O)OP(=O)(O)OP(=O)(O)O)O2)c(=O)[nH]c1=O` [ddTTP, 2',3'-dideoxythymidine triphosphate], the IC50 [1] is reported as 47.2 µM.
With `Nc1ccn([C@H]2CC[C@@H](COP(=O)(O)OP(=O)(O)OP(=O)(O)O)O2)c(=O)n1` [ddCTP, dideoxycytosine triphosphate] the IC50 [1] was 24.8 µM.
For `OC[C@H]1O[C@@H](n2cnc3c2N=CNC[C@H]3O)[C@H](O)[C@@H]1O` [CF, coformycin], the “effect on cell viability” value [3] was “no effect”.
In the case of `Nc1nc2c(ncn2[C@H]2CC[C@@H](COP(=O)(O)OP(=O)(O)OP(=O)(O)O)O2)c(=O)[nH]1` [ddGTP, dideoxyguanosine triphosphate], the IC50 [1] is reported as 18 µM.
Compound `Nc1ncnc2c1ncn2[C@H]1CC[C@@H](CO)O1` [ddA, dideoxyadenosine] has an inhibition at 250 µM (TdT-negative cell lines; 250 uM ddA, read-out: growth inhibition, range over TdT-negative cells) of 0 to 15%, an inhibition at 500 µM (TdT-negative cell lines; 500 uM ddA, read-out: growth inhibition, 2 of the 3 TdT-negative lines) of 40 to 50% and an inhibition at 250 µM (ML3) of 0%. The inhibition at 500 µM (ML3) was 40%, the inhibition at 250 µM (HPB-ALL) was 40% and the inhibition at 500 µM (HPB-ALL) was 99%. For the same compound, the inhibition at 250 µM 8392 was 0%, the inhibition at 500 µM 8392 was 0% and the inhibition at 250 µM (NALM-6) was 30%. It also gave an inhibition at 500 µM (NALM-6) of 95%, an inhibition at 250 µM (MOLT-4) of 60% and an inhibition at 500 µM (MOLT-4) of 92%. The inhibition at 250 µM (L1210) was 15%, the inhibition at 500 µM (L1210) was 50% and the inhibition at 250 µM (298-26) was 80%. It also gave an inhibition at 500 µM (298-26) of 99%, an inhibition at 250 µM (TdT-positive cell lines; 250 uM ddA, read-out: growth inhibition, range over all four TdT-positive cell lines) of 30 to 80% and an inhibition at 500 µM (TdT-positive cell lines; 500 uM ddA, read-out: growth inhibition, range over TdT-positive lines) of 92 to 99%.
